| SMILES | melting point [°C] |
| --- | --- |
| OC1(CNc2nc3ccccc3s2)CCN(CC2COc3ccccc3O2)CC1 (stereo not drawn) | 176 |
| CC(C)[C@H](NS(=O)(=O)c1ccc2c(Cl)cnc(Cl)c2c1)C(=O)OC(C)(C)C | 127 to 129 |
| COc1ccc2c(CCN3CC=C(c4c[nH]c5cc(F)ccc45)CC3)coc2c1 | 181 |
| CNC(=O)c1cnn(-c2ccccc2)c1Cl | 182 to 183 |
| CC1=C(C(=O)O)C(c2cccc([N+](=O)[O-])c2)N(C(=O)N(C)C)C(=O)N1 (stereo not drawn) | 193 to 195 |
| CCCCc1nc(SC)c(C(=O)OCC)n1Cc1ccccc1-c1ccccc1S(=O)(=O)NC#N | 105 |
| COc1ccccc1CC(=O)c1ccc(C(C)C)c(OS(N)(=O)=O)c1C(C)C | 159 to 161 |
| COC(=O)c1cc(C)nc(C)c1 | 45 to 47 |
| COC(=O)c1ccc(NC(=O)c2ccccc2Cc2ccccc2)cc1 | 138 to 139 |
| COc1ccccc1C(=O)c1ncccc1C | 98 to 100 |
| COc1ccc(-c2nc3ccc(CBr)cc3o2)cc1 | 137 to 138 |
| O=C(O)CCCOc1cccc(CCNC(=O)C2Cc3ccccc3N2S(=O)(=O)c2ccc(-c3cccc(C(F)(F)F)c3)cc2)c1 (stereo not drawn) | 70 |
| COCCOc1cc2nccc(Oc3cccc(O)c3)c2cc1C#N | 159 to 163 |
| COc1ccc2c(c1)C(=O)c1c-2c(Cl)nc2ccc(F)cc12 | 149 to 150 |
| COC(=O)c1ccc(OCC(N)=O)c(N)c1 | 181 to 182 |
| CC(C)c1ccc(Oc2ccc(C(=O)c3ccc(Oc4ccc(C(C)C)cc4)cc3)cc2)cc1 | 104 to 105 |
| CCCn1c(C)nc2cc(C(=O)O)ccc21 | > 260 |
| CCOCn1c(C(F)(F)F)c(C#N)c2ccc(Cl)cc21 | 83 to 86 |
| O=C(c1ccccc1)N1CCC(O)(c2ccccc2Cc2ccccc2)C1 (stereo not drawn) | 113 to 116 |
| Cc1cc(-c2ccccc2C#N)ccc1[N+](=O)[O-] | 128 to 136 |

| SMILES | melting point [°C] |
| --- | --- |
| CCNC(=S)N(C)c1cn(-c2cccnc2)nc1Cl | 160 to 162 |
| O=C(Nc1cccc(F)c1)N1CCc2cc(S(=O)(=O)N3CCN(c4cccc(Cl)c4)CC3)ccc21 | 208 to 210 |
| Cc1ccccc1-c1nc(-c2cccc(Cl)c2)n[nH]1 | 147 to 148 |
| CC(C)(C)c1ccc(O)c(CO)c1 | 65 to 85 |
| CC(COc1ccc(CC2SC(=O)NC2=O)cc1)N1CC(Cc2ccccc2)OC1=O (stereo not drawn) | 60 to 70 |
| Cc1cccc(-c2n[nH]cc2-c2ccc(F)c(-c3ccc(N4CCOCC4)nc3)c2)n1 | 85 to 87 |
| COc1ccc(-c2cc(=O)n(Cc3ccncc3)nc2-c2ccc(OC)cc2)cc1 | 182 to 183 |
| Brc1cccc(Sc2ccc3ccccc3c2)c1 | 68 to 70 |
| Cc1ccc2sc3cc(F)ccc3c(=O)c2c1 | 159 to 165 |
| CC(C)C(NC(=O)c1ccc(C(=O)NCC(=O)O)cc1)C(=O)N1CCCC1C(=O)NC(C(=O)C(F)(F)F)C(C)C (mixture of isomers) | 99 to 103 |
| CC[C@H](O)CC(=O)N[C@H]1CC[C@H](CCN2CCN(c3nccc4c3CCO4)CC2)CC1 | 158 |
| CCOP(=O)(C[C@H]1CCN[C@@H](C(N)=O)C1)OCC (relative stereo) | 155 to 158 |
| O=C(NC1CN2CCC1CC2)c1ccc2[nH]ccc2c1 (stereo not drawn) | 293 to 295 |
| CCOC(=O)[C@H](C)NC(=O)CCc1cc(Cl)ccc1C(=O)CCCNC(C)=O | 106 |
| NNC(=O)C(F)(F)C(F)(F)C(F)(F)F | 138 to 142 |
| COc1cc([C@@H]2c3cc4c(cc3C(=O)C[C@H]2C(=O)O)OCO4)cc(OC)c1OC (relative stereo) | 221 to 223 |
| COCCN(C)Cc1ncc(C(=O)Nc2nc3c(OC)ccc(N4CCOCC4)c3s2)n1C | 176 to 178 |
| Cc1ccc(CN(C)CCOc2ccc(NC(=O)c3cccc4c(=O)c5ccccc5[nH]c34)cc2)cc1 | 168 |
| CCCn1cc(Cc2ccc(C(=O)NS(=O)(=O)c3ccccc3C)cc2OC)c2cc(CCCCC(=O)N(C)C)ccc21 | 80 to 85 |
| Cc1ncccc1CN(CCn1cc(C)c2occc2c1=O)Cc1ccc2c(c1)N(CC(C)C)C(=O)C(C)(C)C(=O)N2 | 206 to 208 |

| SMILES | melting point [°C] |
| --- | --- |
| C[Si](C)(C)CNc1ccc([N+](=O)[O-])cc1 | 120 |
| CC(C)(C)CC1N(C(c2ccccc2)C(O)c2ccccc2)C(C(=O)NC2CCC(O)CC2)C(c2cccc(Cl)c2F)C12C(=O)Nc1cc(Cl)ccc12 (stereo not drawn) | 190 |
| COC1=Nc2cc(OC)c(F)cc2C(c2ccccc2Cl)=NC1C(C)=O (stereo not drawn) | 172 to 174 |
| COc1ccc(Cl)cc1-c1n[nH]c(=O)cc1NN | 285 to 290 |
| Cc1cc(C)cc(NC(=O)NC2N=C(c3ccccc3)c3ccccc3N(C)C2=O)c1 (stereo not drawn) | 267 to 269 |
| Cc1cc([N+](=O)[O-])c(C)cc1Oc1cccc(C(F)(F)F)c1 | 68 to 71 |
| Cc1cccc(-c2n[nH]cc2-c2ccc(F)c(-c3cnn(CCN4CCOCC4)c3)c2)n1 | 124 |
| O=c1c2cc(O)ccc2oc2c(CO)ccc(NCCN3CCCC3)c12 | 186 to 190 |
| Cn1nc(N2c3ccccc3C[C@H]2C(=O)O)ccc1=O | 245 to 247 |
| COc1cc(Nc2nccc(-c3ccc(-c4nnn[nH]4)cc3)n2)cc(OC)c1OC | 246 to 247 |
| CCCCCCC(c1nccn1C)n1cnc2cc(-c3ccccc3-c3nn[nH]n3)ccc21 (stereo not drawn) | 88 to 93 |
| COC(=O)NNC(=O)c1ccc([N+](=O)[O-])o1 | 155 |
| Cc1ccc(C2=NOC(c3cc(Cl)cc(Cl)c3)(C(F)(F)F)C2)cc1Cl (stereo not drawn) | 97 to 99 |
| NC(=O)N(O)Cc1ccc(Oc2ccc(-n3ccnc3)cc2)s1 | 141 |
| Cc1cc(Cl)cc2c1OCCCC2=O | 56 to 58 |
| C=CCc1c(-c2cc(=O)c3c(O)c(CC=C)c(O)c(CC=C)c3o2)ccc(OC)c1O | 122 to 123 |
| CC(=C1SCCCS1)c1cccc(N)c1 | 99 to 100 |
| CC(=O)OC1CSC(Sc2cccc(C#N)c2)C(OC(C)=O)C1OC(C)=O (stereo not drawn) | 133 |

More lines, now with the values ahead:

| melting point [°C] | SMILES |
| --- | --- |
| 170 to 172 | NS(=O)c1ncnc2c1ccn2C1CC(O)C(CO)O1 (stereo not drawn) |
| 134 to 136 | O=C(O)CCCN(C(=O)c1ccc(Cl)cc1Cl)c1cccc2ccccc12 |
| 139 to 141 | O=c1cccc2c([N+](=O)[O-])cccc2n1 |
| 127 to 129 | COc1ccc(C(=O)c2ccccc2F)c(O)c1Br |
| 83 to 84 | C#Cc1cncc(C2CCC(=O)N2C)c1 (stereo not drawn) |
| 58 to 60 | CSc1ncc(CN)c(NC2CCCC2)n1 |
| 59 to 60 | CN(C=O)CC1(N(C)C)CCCCC1 |
| 109 to 110 | CCNc1cccnc1N(CC)CC1CCN(C(=O)c2ccc[nH]2)CC1 |
| 169 | O=Cc1ccc(-c2cn3ccnc3s2)cc1 |
| 150 to 151 | O=C(O)c1cc2cc(Cl)ccc2nc1NC(COCc1ccccc1)C(=O)Nc1ccccc1 (stereo not drawn) |
| 98 to 99 | Cc1cc(O)cc(Br)c1C |
| 221 | CC(C)(CO)NS(=O)(=O)c1cccc(-c2cc(-c3nc(-c4ccc(C(F)(F)F)cc4)cc(C(F)(F)F)n3)ccn2)c1 |
| 87 to 92 | CC1(C)Cc2cccc(O)c2S1 |
| 65 to 67 | CC(=O)CSc1ncc(C)n1C |
| > 260 | O=C(Nc1ccc2[nH]c(=O)[nH]c2c1)C(=O)N1CCC(Cc2ccc(F)cc2)CC1 |
| 226 to 229 | CCn1c(=O)c(CC(=O)O)cc2ccc(O)cc21 |
| 194 to 195 | CCOC(=O)/C=C/c1cn(-c2ccccc2)nc1OCc1ccc(OCc2nc(-c3ccccc3)oc2C)c(OC)c1 |
| 142 to 143 | COC(=O)CC(=O)c1nccn1C |
| 130 to 143 | CCCCc1nc2cc(CO)ccc2n1Cc1ccc(-c2ccccc2C(=O)O)cc1 |
| 130 | O=C(Nc1ccccc1)O[C@@H]1CN=C(c2ccc(Cl)c(Cl)c2)O[C@H]1c1ccccc1 (racemic) |

| melting point [°C] | SMILES |
| --- | --- |
| 254 to 256 | COC(=O)c1ccc2c(=O)n(Cc3ccc(OC)cc3)c(=O)[nH]c2c1 |
| 213 | N#CC(=Cc1ccc[nH]1)C(=O)O |
| 117 to 120 | CCOC(=O)Cn1c2c(c3cc(Cl)cc(Cl)c31)CCN(C(=O)OC(C)(C)C)CC2 |
| 73.5 to 74 | O=C(O)CCCCCCCCCCCCC(=O)OCc1ccccc1 |
| 170 to 171 | COc1ccc(C2(C#Cc3cnc(NC(C)=O)nc3)CCC(=O)CC2)cc1OC1CCCC1 |
| 164 to 166 | CC(C)OC(=O)CC(NCCCN(C)C)C(=O)O (stereo not drawn) |
| 150 | NC1CCN(c2ncc3ncnc(Nc4ccc(OCc5ccccc5)cc4)c3n2)CC1 |
| 171 | CS(=O)(=O)Cc1c(C(=O)NN2CCCCC2)nn(-c2ccc(Cl)cc2Cl)c1-c1ccc(Cl)cc1 |
| 153 to 154 | CCc1ccc(OC(C)=O)c(C2(OC(C)=O)C(=O)c3ccccc3C2=O)c1 |
| 80 to 82 | COC(=O)C(=O)c1ccc(OC/C=C/c2ccccc2)cc1 |
| 92 to 93 | COc1cccc(CC2CCCc3cc(OCc4ccccc4)c(OC)cc3N2)c1 (stereo not drawn) |
| 105 to 106 | CNC(=O)Cc1ccccc1O |
| 233 to 234 | C[C@H](NC(=O)OCc1ccccc1)C(=O)N[C@@H](C)C(=O)NC1CCCCC1 |
| 101 to 102 | COC(=O)[C@@H]1CCCC[C@@H]1C(=O)N(C)CC(=O)NO (relative stereo) |
| 145 to 147 | CC(C)(C)OC(=O)Nc1sc(-c2cccnc2)nc1C(F)(F)F |
| 192 to 193 | CC1(C)CCc2c(N3CCCC3)nc3sc4c(NCCc5c[nH]cn5)ncnc4c3c2C1 |
| 214 to 215 | O=C(O)C1Cc2cc3c(-c4ccccc4)noc3c(Cl)c2O1 (stereo not drawn) |
| 132 to 133 | Cc1cccc(NC(=O)NC2N=C(C(C)C)c3cccc(C)c3N(CC(=O)N3CCCCCCC3)C2=O)c1 (stereo not drawn) |
| 167 to 169 | C[C@H]1CCCN(C(=O)[C@@H]2Cc3ccccc3N2c2nccs2)C1 |
| 131 | CCc1ccc(CCc2ccc(-c3ccc(OC(F)F)cc3)cc2)cc1 |

— a melting point compilation (Tetko et al.; mined from patent text by program, amines drawn as free bases though some values may be those of a salt)
